# Experimental data from ChEMBL document CHEMBL4823319, “Design, synthesis, and biological evaluation of potent 1,2,3,4-tetrahydroisoquinoline derivatives as anticancer agents targeting NF-κB signaling pathway” (Bioorg Med Chem, 2021).
# pIC50: −log10 of the molar value. The source made the active and inactive calls. The calls are words filed in the database; no cut-off is given here.
# Assays:
# [1] = system: NUGC-3; assay: Anticancer activity against human […] cells assessed as growth inhibition incubated for 48 hrs by sulforhodamine B method; format: functional
# [2] = Inhibition of NF-kappaB transcriptional activity in mouse RAW264.7 cells harbouring NF-kappaB-SEAP-NPT reporter plasmid assessed as reduction in LPS-induced SEAP expression incubated for 16 hr with LPS; format: cell-based
# [3] = system: MDA-MB-231; assay: Inhibition of NF-kappaB in human MDA-MB-231 cells assessed as reduction in LPS-induced NF-kappaB nuclear translocation at 10 uM treated with LPS for 24 hrs by immunocytochemical analysis; format: cell-based
# [4] = system: MDA-MB-231; assay: Anticancer activity against human MDA-MB-231 cells assessed as growth inhibition incubated for 48 hrs by sulforhodamine B method; format: functional
# [5] = system: ACHN; assay: Anticancer activity against human […] cells assessed as growth inhibition incubated for 48 hrs by sulforhodamine B method; format: functional
# [6] = system: MDA-MB-231; assay: Inhibition of NF-kappaB in human MDA-MB-231 cells assessed as reduction in LPS-induced NF-kappaB nuclear translocation at 10 uM treated with LPS for 24 hrs by Western blotting analysis; format: cell-based
# [7] = system: PC-3; assay: Anticancer activity against human PC-3 cells assessed as growth inhibition incubated for 48 hrs by sulforhodamine B method; format: functional
# [8] = system: HCT-15; assay: Anticancer activity against human HCT-15 cells assessed as growth inhibition incubated for 48 hrs by sulforhodamine B method; format: functional
# [9] = system: NCI-H23; assay: Anticancer activity against human NCI-H23 cells assessed as growth inhibition incubated for 48 hrs by sulforhodamine B method; format: functional
smiles,measurement,setting,value
COc1ccccc1NC(=O)c1nccc2ccccc12,GI50,[1],> 10 µM
O=C(Nc1cccc(C(F)(F)F)c1)c1nccc2ccccc12,GI50,[1],> 10 µM
O=C(Nc1cccc(O)c1)C1NCCc2ccccc21 (stereo unspecified),GI50,[1],> 10 µM
O=C(Nc1ccc(O)cc1)c1nccc2ccccc12,GI50,[1],> 10 µM
O=C(Nc1cc(C(F)(F)F)cc(C(F)(F)F)c1)c1nccc2ccccc12,GI50,[1],> 10 µM
O=C(Nc1ccccc1Cl)c1nccc2ccccc12,GI50,[1],> 10 µM
O=C(Nc1cccc(Cl)c1)c1nccc2ccccc12,GI50,[1],> 10 µM
COc1cc2c(cc1O)CCC(C(=O)Nc1ccccc1)O2 (stereo unspecified),pIC50,[2],4.39
COc1ccccc1NC(=O)C1c2ccccc2CCN1C(=O)c1ccc(Cl)cc1 (stereo unspecified),inhibition,[3],Active
same,GI50,[4],2.28 µM
same,GI50,[5],1.98 µM
same,inhibition,[6],Dose-Dependent Effect
same,GI50,[7],2.01 µM
same,GI50,[8],1.74 µM
same,GI50,[1],1.59 µM
same,GI50,[9],1.94 µM
O=C(Nc1ccc(C(F)(F)F)cc1)c1nccc2ccccc12,GI50,[1],> 10 µM
O=C(Nc1cccc(O)c1)c1nccc2ccccc12,GI50,[1],> 10 µM
O=C(Nc1ccc(O)cc1)C1c2ccccc2CCN1C(=O)c1ccc(Cl)cc1 (stereo unspecified),GI50,[1],> 10 µM
COc1cccc(NC(=O)C2c3ccccc3CCN2C(=O)c2ccc(Cl)cc2)c1 (stereo unspecified),GI50,[4],3.21 µM
same,GI50,[5],2.96 µM
same,GI50,[7],2.89 µM
same,GI50,[8],3.62 µM
same,GI50,[1],2.14 µM
same,GI50,[9],2.42 µM
COc1ccc(NC(=O)c2nccc3ccccc23)cc1,GI50,[1],> 10 µM
O=C(Nc1ccc(C(F)(F)F)cc1)C1NCCc2ccccc21 (stereo unspecified),GI50,[4],4.74 µM
same,GI50,[5],5.2 µM
same,GI50,[7],6.59 µM
same,GI50,[8],5.44 µM
same,GI50,[1],4.22 µM
same,GI50,[9],4.4 µM
COc1cccc2c1C(=O)c1c(O)c3c(c(O)c1C2=O)C[C@@](O)(C(=O)CO)C[C@@H]3O[C@H]1C[C@H](N)[C@H](O)[C@H](C)O1 [DOXORUBICIN],GI50,[4],0.086 µM
same,GI50,[5],0.088 µM
same,GI50,[7],0.09 µM
same,GI50,[8],0.076 µM
same,GI50,[9],0.072 µM
COc1ccc(NC(=O)C2c3ccccc3CCN2C(=O)c2ccc(Cl)cc2)cc1 (stereo unspecified),GI50,[4],4.9 µM
same,GI50,[5],3.67 µM
same,GI50,[7],3.48 µM
same,GI50,[8],6.08 µM
same,GI50,[1],3.63 µM
same,GI50,[9],4.34 µM
O=C(Nc1cccc(C(F)(F)F)c1)C1NCCc2ccccc21 (stereo unspecified),GI50,[1],> 10 µM
O=C(Nc1ccccc1C(F)(F)F)C1NCCc2ccccc21 (stereo unspecified),GI50,[1],> 10 µM
O=C(Nc1ccccc1O)c1nccc2ccccc12,GI50,[1],> 10 µM
O=C(Nc1ccccc1O)C1NCCc2ccccc21 (stereo unspecified),GI50,[1],> 10 µM
O=C(Nc1ccc(C(F)(F)F)cc1)C1c2ccccc2CCN1C(=O)c1ccc(Cl)cc1 (stereo unspecified),GI50,[4],4.35 µM
same,GI50,[5],3.47 µM
same,GI50,[7],4.49 µM
same,GI50,[8],5.11 µM
same,GI50,[1],4.2 µM
same,GI50,[9],3.34 µM
O=C(Nc1cccc(O)c1)C1c2ccccc2CCN1C(=O)c1ccc(Cl)cc1 (stereo unspecified),GI50,[1],> 10 µM
COc1ccccc1NC(=O)C1NCCc2ccccc21 (stereo unspecified),GI50,[1],> 10 µM
O=C(Nc1cc(C(F)(F)F)cc(C(F)(F)F)c1)C1NCCc2ccccc21 (stereo unspecified),GI50,[1],> 10 µM
O=C(Nc1ccccc1C(F)(F)F)C1c2ccccc2CCN1C(=O)c1ccc(Cl)cc1 (stereo unspecified),GI50,[1],> 10 µM
O=C(Nc1cccc(C(F)(F)F)c1)C1c2ccccc2CCN1C(=O)c1ccc(Cl)cc1 (stereo unspecified),GI50,[1],> 10 µM
O=C(Nc1cc(C(F)(F)F)cc(C(F)(F)F)c1)C1c2ccccc2CCN1C(=O)c1ccc(Cl)cc1 (stereo unspecified),GI50,[4],2.71 µM
same,GI50,[5],2.65 µM
same,GI50,[7],2.56 µM
same,GI50,[8],3.52 µM
same,GI50,[1],2.83 µM
same,GI50,[9],2.02 µM
O=C(Nc1ccc(O)cc1)C1NCCc2ccccc21 (stereo unspecified),GI50,[4],5.05 µM
same,GI50,[5],5.32 µM
same,GI50,[7],4.25 µM
same,GI50,[8],5.73 µM
same,GI50,[1],4.37 µM
same,GI50,[9],3.39 µM
O=C(Nc1ccc(Cl)cc1)c1nccc2ccccc12,GI50,[1],> 10 µM
COc1ccc(NC(=O)C2NCCc3ccccc32)cc1 (stereo unspecified),GI50,[1],> 10 µM
COc1cccc(NC(=O)C2NCCc3ccccc32)c1 (stereo unspecified),GI50,[1],> 10 µM
O=C(Nc1ccccc1O)C1c2ccccc2CCN1C(=O)c1ccc(Cl)cc1 (stereo unspecified),GI50,[1],> 10 µM
COc1cccc(NC(=O)c2nccc3ccccc23)c1,GI50,[1],> 10 µM
O=C(Nc1ccccc1C(F)(F)F)c1nccc2ccccc12,GI50,[1],> 10 µM
